Columns and labels:
[1] = tested on: ampicillin resistance gene ampC; test: Real-time quantitative PCR of resistance gene ampC and total bacterial 16S rRNA in fecal DNA; type: in vivo, mice; settings: oral 20 mg kg^-1 once a day 5 days; feces; vs control
Description: We orally administered PGNPs-encapsulated ampicillin and free ampicillin to 6-8 weeks old mice for 5 consecutive days, once a day, while the control group was not given any ampicillin treatment. At specific time points during and after the antibiotic treatment period, we collected fecal samples from the mice, extracted DNA, determined DNA concentration, diluted to 10 ng μL^−1, and analyzed the copy number of the ampicillin resistance gene ampC using real-time fluorescence quantitative PCR.
Mice were divided into four groups, with 6 mice in each group. The control group was not treated with antibiotics, while the experimental group was given free antibiotics or antibiotics encapsulated in PGNPs prepared as described above. The experimental group mice were orally administered ampicillin (20 mg kg^−1) and PGNPs- encapsulated ampicillin once a day for 5 consecutive days. At specific time points, mouse feces were collected, and total DNA was extracted from fecal samples, and the concentration was measured. Real-time quantitative PCR was used to amplify the ampicillin resistance gene ampC and the total bacterial 16S rRNA in fecal DNA, and the copy numbers of the two genes were calculated to determine the effect of the two different antibiotic treatments on the abundance of antibiotic-resistant bacteria in the gut.

[2] = tested on: Streptococcus pneumoniae; test: Mouse pneumonia induced by intranasal Streptococcus pneumoniae, oral treatment; type: in vivo, mice
Description: In one implementation, the effectiveness of orally administered ampicillin wrapped in PGNPs for treating mouse pneumonia was validated. Firstly, we induced mouse pneumonia by intranasally administering Streptococcus pneumoniae. At 2 and 8 hours post-induction, the mice received either ampicillin encapsulated in PGNPs or free ampicillin treatment. At 24 hours post-infection, the number of Streptococcus pneumoniae in the mouse lungs and the proportion of neutrophil infiltration were analyzed.
Mice were divided into four groups, with two control groups receiving no ampicillin treatment and two treatment groups receiving ampicillin treatment after infection, with at least 3 mice per group. Mouse pneumonia was induced by intranasal inoculation of 3×10^8 CFUs of Streptococcus pneumoniae. After infection, mice were orally treated with either free ampicillin or PGNPs encapsulated with ampicillin (40 mg kg^−1) at 2 hours and 8 hours post-infection. After 24 hours of infection, the number of Streptococcus pneumoniae in the lungs was measured. Mouse lung tissues were collected and homogenized in sterile PBS, diluted 10-fold in PBS, and plated for colony counting. The proportion of neutrophil infiltration in the lungs of the mice was determined by staining the lung tissues with antibodies and analyzing with a flow cytometer.

[3] = Loading rate (encapsulation efficiency) of antibiotics in PGNPs by double emulsion, single emulsion and dialysis; type: physicochemical; settings: hydrophobic antibiotics; Gluc-PEG-PLGA + cationic lipid
Text: In one implementation, we used a double-emulsification method to encapsulate hydrophilic antibiotics such as ampicillin and erythromycin, and measured an encapsulation efficiency of 50%-60%. Using a dialysis method, we encapsulated hydrophobic antibiotics such as metronidazole and achieved an encapsulation efficiency of 25%. Encapsulation of hydrophobic antibiotics such as metronidazole using a single-emulsification method yielded an encapsulation efficiency of 20%-40%. Various types of antibiotics with different properties can be encapsulated in nanoparticles using methods such as single-emulsification, double-emulsification, and dialysis, as shown in FIG. 3. The double-emulsification method yielded the highest encapsulation efficiency for hydrophilic antibiotics.
For hydrophilic antibiotics, such as ampicillin and vancomycin, the double emulsion method was used for loading. A water-soluble solution (100 mg mL^−1, 30 μL) of either ampicillin or vancomycin was added to 0.5 mL of dichloromethane containing 0.5 mg DOTAP and 5 mg glucose-PEG-PLGA. […] The concentration of the loaded antibiotics in the nanoparticles was measured using a UV spectrophotometer or HPLC. The loading rate was calculated by dividing the mass of loaded antibiotics by the total mass of antibiotics used for loading. […]

[4] = 40 mg kg^-1 oral at 2 h and 8 h post-infection, 24 h, vs untreated group

encapsulation efficiency, dialysis method [3] [%]	Compound	copy number of gut bacterial resistance gene ampC [1]	neutrophil proportion in the lungs [2, 4]	number of lung Streptococcus pneumoniae [2, 4]	therapeutic effect on mouse pneumonia ([2]; oral at 2 and 8 hours post-induction, analysed at 24 hours)
	CC1(C)S[C@@H]2[C@H](NC(=O)[C@H](N)c3ccccc3)C(=O)N2[C@H]1C(=O)O [Free-Amp, ampicillin]	increased sharply over time	significant decrease	significant decrease	good therapeutic effects
25	Cc1ncc([N+](=O)[O-])n1CCO [metronidazole]				
